According to patent US10988523B2, “Modified lipidated Relaxin B chain peptides and their therapeutic use” (Sanofi, priority 2018, dated 2021):
*1 amine or outer side, *2 acyl side, *3 side chain or, on linkers, in order; H or OH if unused. Where a SMILES comes first, the peptide text is derived from it. Side-chain parts run from the residue outwards. [ ]: non-standard residue; d: D form. The star is where a group is joined. X6 = CCCCCCCCCCCCCCC(=O)N[C@@H](CCC(=O)N[C@@H](CCC(=O)NCCCC[C@H](NC(=O)CC[C@H](NC(=O)CC[C@H](NC(=O)CCC(=O)NCCCOCCOCCOCCCNC(=O)CCC(=O)NCCCOCCOCCOCCCNC(=O)CCC(=O)NCCCOCCOCCOCCCN*)C(=O)O)C(=O)O)C(N)=O)C(=O)O)C(=O)O; X1 = CCCCCCCCCCCCCCCCCC(=O)N[C@@H](CCC(=O)N[C@@H](CCC(=O)N[C@@H](CCC(=O)NCCCC[C@H](NC(=O)COCC(=O)NCCCOCCOCCOCCCNC(=O)COCC(=O)NCCCOCCOCCOCCCN*)C(N)=O)C(=O)O)C(=O)O)C(=O)O; γGlu = O=C(O)[C@H](CCC(=O)[*:2])N[*:1]; Palmitoyl = CCCCCCCCCCCCCCCC(=O)*; αMeK = C[C@](N)(CCCCN)C(=O)O; Nle = CCCC[C@H](N)C(=O)O; AEEA = NCCOCCOCC(=O)O; Aib = CC(C)(N)C(=O)O

Columns and labels:
RXFP1 = target: T1, RXFP1 (Homo sapiens, UniProt Q9HBX9); assay: OVCAR5 cAMP assay (HTRF), RXFP1 agonist activity; type: cell-based; details: for EC50: OVCAR5 cells, cAMP HTRF, read-out: EC50 (nM), OVCAR 5 cells (cAMP); for Emax: OVCAR-5, maximal cAMP relative to H2-relaxin maximum (100%), read-out: EMax, OVCAR 5 cells (cAMP)
T1 construct: OVCAR5 cells expressing endogenous RXFP1; endogenous in cells; host or cells: OVCAR5 cells
T1 sequence (Q9HBX9 1-757): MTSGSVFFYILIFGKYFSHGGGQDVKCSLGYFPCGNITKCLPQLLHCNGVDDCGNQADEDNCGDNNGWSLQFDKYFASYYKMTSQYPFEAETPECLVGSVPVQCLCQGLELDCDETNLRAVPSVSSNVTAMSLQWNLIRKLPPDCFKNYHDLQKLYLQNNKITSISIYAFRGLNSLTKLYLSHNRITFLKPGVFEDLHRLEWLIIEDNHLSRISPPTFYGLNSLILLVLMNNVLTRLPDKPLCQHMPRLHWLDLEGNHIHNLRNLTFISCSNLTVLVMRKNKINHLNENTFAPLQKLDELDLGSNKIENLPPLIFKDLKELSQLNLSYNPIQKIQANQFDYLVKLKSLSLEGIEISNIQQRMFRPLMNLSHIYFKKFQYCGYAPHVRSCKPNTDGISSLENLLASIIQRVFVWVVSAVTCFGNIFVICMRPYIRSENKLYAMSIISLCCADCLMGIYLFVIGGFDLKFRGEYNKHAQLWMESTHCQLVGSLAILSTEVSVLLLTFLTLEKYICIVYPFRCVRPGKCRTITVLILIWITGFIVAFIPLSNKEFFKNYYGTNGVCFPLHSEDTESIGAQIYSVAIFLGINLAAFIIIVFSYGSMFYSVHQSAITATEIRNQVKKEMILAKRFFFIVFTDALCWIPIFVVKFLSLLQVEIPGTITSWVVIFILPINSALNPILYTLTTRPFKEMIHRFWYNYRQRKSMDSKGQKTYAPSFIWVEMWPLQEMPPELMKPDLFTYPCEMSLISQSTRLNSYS
How it was run: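 OVCAR5 cells (endogenous RXFP1) pretreated 40 min at 37° C with 1 mM IBMX, then exposed to peptides in serum-free medium for 30 min at 37° C. Lysate cAMP read by HTRF; EC50 from variable-slope sigmoidal fit; Emax as % of H2-relaxin maximal cAMP in same run.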

[1] = Stability testing of peptides in human plasma or blood; type: in vitro ADME; details: 37° C.; for Human Plasma stability % remaining T = 0: human plasma or blood, T = 0 (reference), 5 μM; for remaining at 1 h, 5 µM / remaining at 4 h, 5 µM: human plasma; for remaining at 1 h, 5 µM: read-out: Human Plasma stability % remaining 1 h; for remaining at 4 h, 5 µM: read-out: Human Plasma stability % remaining 4 h
Protocol: (§1) Prior to the testing of stability in plasma (or blood) of a peptide batch, its purity (HPLC-UV) was determined.
(§2) Rat and Human plasma: anti-coagulant sodium or lithium heparin.
(§3) Rat and Human blood: anti-coagulant sodium or lithium heparin. • Stock solution: • 100 μM solution of study compound in 50 mM Phosphate buffer pH 7.4. • 950 μL plasma (or blood) was pre-incubated for 5 min at 37° C. 50 μL of compound stock solution was added. Final compound concentration=5 μM. Vortex and transfer 1504, plasma (or blood) into an Eppendorf for each time point. The time points […] were carried out in duplicate for each species.
(§4) After incubation 150 μL, plasma (or blood) was extracted with 600 μL, Acetonitrile containing with 1% TFA. Then, vortexed and centrifuged 10 min at 14600 rpm. 200 μL supernatant was dried under N2. The sample was reconstituted in 200 μL of H2O/CH3CN 98/2+0.1% FA+50 ng/ml Labetalol and analyzed using the analytical system used in solubility and stability studies.
(§5) For determination of the amount of the remaining peptide, the peak areas of the target compound at t0 and each time point […] were compared, resulting in “% remaining peptide”, following the equation: % remaining peptide=[(peak area peptide time)×100]/peak area peptide t0. The stability is expressed as “% remaining peptide”.

[2] = Stability testing of peptides in rat plasma or blood; type: in vitro ADME; details: 37° C.; for Rat plasma stability % remaining T = 0: rat plasma or blood, T = 0 (reference), 5 μM; for remaining at 1 h, 5 µM / remaining at 4 h, 5 µM: rat plasma; for remaining at 1 h, 5 µM: read-out: Rat plasma stability % remaining 1 h; for remaining at 4 h, 5 µM: read-out: Rat plasma stability % remaining 4 h
Protocol: as §1, §2, §3, §4, §5

[3] = Pharmacokinetic (PK) determination after i.v. or s.c. administration to rats; type: in vivo, Sprague Dawley rats; details: Sprague Dawley, Rat PK
How it was run: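 Sprague Dawley rats received peptide in PBS at 1 mg/kg i.v. or 3 mg/kg s.c., dose corrected for salts, solvent and purity. Plasma analysed by LC/MS after protein precipitation; non-compartmental PK, BLQ values set to zero, F% as dose-corrected s.c./i.v. AUC ratio.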

Row | EC50 (RXFP1) [nM] | Emax (RXFP1) [%] | Human Plasma stability % remaining T = 0 [1] [%] | remaining at 1 h, 5 µM [1] [%] | remaining at 4 h, 5 µM [1] [%] | Rat plasma stability % remaining T = 0 [2] [%] | remaining at 1 h, 5 µM [2] [%] | remaining at 4 h, 5 µM [2] [%] | C0 ([3]; iv, 1 mg/kg i.v., extrapolated plasma concentration at t=0, read-out: C0) [µM] | half-life ([3]; plasma, iv, 1 mg/kg i.v., read-out: T½ (converted)) [h] | Cmax ([3]; plasma, sc, 3 mg/kg s.c.) [µM] | Tmax ([3]; plasma, sc, 3 mg/kg s.c.) [h] | bioavailability ([3]; plasma, subcutaneous, 3 mg/kg s.c. vs 1 mg/kg i.v., dose-corrected AUC ratio) [%] | SMILES
1 | 0.15 | 96 | 100 | 86 | 90 | 100 | 99 | 89 |  |  |  |  |  | CCCCCCCCCCCCCCCCCC(=O)N[C@@H](CCC(=O)N[C@@H](CCC(=O)N[C@@H](CCC(=O)NCCCC[C@H](NC(=O)COCC(=O)NCCCOCCOCCOCCCNC(=O)COCC(=O)NCCCOCCOCCOCCCNC(=O)[C@H](CCCCNC(C)=O)NC(=O)[C@H](CCCCN)NC(=O)[C@H](CCCNC(=N)N)NC(=O)C(C)(C)NC(=O)[C@H](CO)NC(=O)[C@H](Cc1c[nH]c2ccccc12)NC(=O)[C@@H](NC(=O)[C@H](CO)NC(=O)[C@H](CCCC)NC(=O)CNC(=O)[C@H](CCC(=O)O)NC(=O)C(C)(C)NC(=O)C(C)(C)NC(=O)[C@@H](NC(=O)[C@H](CCCCNC(C)=O)NC(=O)[C@H](C)NC(=O)[C@H](CCCNC(=N)N)NC(=O)[C@@H](NC(=O)[C@H](CCCCN)NC(=O)[C@H](CCC(=O)O)NC(=O)[C@H](CCCNC(=N)N)NC(=O)CNC(=O)[C@H](CCC(=O)O)NC(=O)[C@H](CC(C)C)NC(C)=O)C(C)C)[C@@H](C)CC)[C@@H](C)O)C(N)=O)C(=O)O)C(=O)O)C(=O)O [compound 19] (Ac-LEGREKVRAK(Ac)I[Aib][Aib]EG[Nle]STWS[Aib]RKK(Ac)-X1)
2 | 0.17 | 80 | 100 | 101 | 114 | 100 | 96 | 98 |  |  |  |  |  | CCCCCCCCCCCCCCCC(=O)N[C@@H](CCC(=O)NCCCC[C@H](NC(=O)CC[C@H](NC(=O)CC[C@H](NC(=O)CC[C@H](NC(=O)COCCOCCNC(=O)COCCOCCNC(=O)COCCOCCNC(=O)[C@H](CCCCN)NC(=O)[C@H](CCCCN)NC(=O)[C@H](CCCNC(=N)N)NC(=O)C(C)(C)NC(=O)[C@H](CO)NC(=O)[C@H](Cc1c[nH]c2ccccc12)NC(=O)[C@@H](NC(=O)[C@H](CO)NC(=O)[C@H](CCCC)NC(=O)CNC(=O)[C@H](CCC(=O)O)NC(=O)C(C)(C)NC(=O)C(C)(C)NC(=O)[C@@H](NC(=O)[C@H](CCC(N)=O)NC(=O)[C@H](C)NC(=O)[C@H](CCCNC(=N)N)NC(=O)[C@@H](NC(=O)[C@H](CCCCN)NC(=O)[C@H](CCC(=O)O)NC(=O)[C@H](CCCNC(=N)N)NC(=O)CNC(=O)[C@H](CCC(=O)O)NC(=O)[C@H](CC(C)C)NC(C)=O)C(C)C)[C@@H](C)CC)[C@@H](C)O)C(=O)O)C(=O)O)C(=O)O)C(N)=O)C(=O)O [compound 110] (Ac-LEGREKVRAQI[Aib][Aib]EG[Nle]STWS[Aib]RKK[AEEA][AEEA][AEEA][γGlu][γGlu][γGlu]K([γGlu-Palmitoyl])-NH2)
3 |  | 100 |  |  |  |  |  |  | 4.7 | 7.3 | 2.8 | 7 | 71 | CCCCCCCCCCCCCCC(=O)N[C@@H](CCC(=O)N[C@@H](CCC(=O)NCCCC[C@H](NC(=O)CC[C@H](NC(=O)CC[C@H](NC(=O)CCC(=O)NCCCOCCOCCOCCCNC(=O)CCC(=O)NCCCOCCOCCOCCCNC(=O)CCC(=O)NCCCOCCOCCOCCCNC(=O)[C@H](CCCCNC(C)=O)NC(=O)[C@H](C)NC(=O)[C@H](CCCNC(=N)N)NC(=O)[C@](C)(CCCCN)NC(=O)[C@H](CO)NC(=O)[C@H](Cc1ccccc1)NC(=O)[C@@H](NC(=O)[C@H](CO)NC(=O)[C@H](CCC(N)=O)NC(=O)CNC(=O)[C@H](CCC(=O)O)NC(=O)C(C)(C)NC(=O)C(C)(C)NC(=O)[C@@H](NC(=O)[C@H](CCCCNC(C)=O)NC(=O)[C@H](C)NC(=O)[C@H](CCCNC(=N)N)NC(=O)[C@@H](NC(=O)[C@H](CCCCN)NC(=O)[C@H](CCC(=O)O)NC(=O)[C@H](CCCNC(=N)N)NC(=O)CNC(=O)[C@H](CCC(=O)O)NC(=O)[C@H](CC(C)C)NC(C)=O)C(C)C)[C@@H](C)CC)[C@@H](C)O)C(=O)O)C(=O)O)C(N)=O)C(=O)O)C(=O)O [compound 184] (Ac-LEGREKVRAK(Ac)I[Aib][Aib]EGQSTFS[αMeK]RAK(Ac)-X6)
